Experimental data reported in patent US6982148B2, “Progressive elevated gene-3 (PEG-3) induces aggressive cancer phenotype and regulates angiogenesis” (The Trustees of Columbia University in the City of New York, priority 1999, dated 2006).

Key:
VEGF = VEGF transcription and steady-state mRNA in E11 cells after transient PEG-3 transfection; type: cell-based, rat; conditions: added 4 hr after PEG-3 transfection of E11 cells
Procedure: Transfection of PEG-3 into E11 cells induces steady-state VEGF mRNA. E11 cells were transfected with a pZeoSV/PEG-3 or pZeo SV vector, 4 hr later replicate cultures received cycloheximide and 30 hr later total RNA was extracted and analyzed by Northern blotting for PEG-3, VEGF, Ad5 ElA and GAPDH mRNA expression.
Nucleic Acid Analyses. Steady-state levels of PEG-3, VEGF, ElA, and GAPHD mRNA were determined by Northern analysis of total cytoplasmic RNA using appropriate multiprimed ^32P-labeled cloned cDNA probes as described previously (18,19). Briefly, 10 μg of total RNA from the different cell types were electrophoresed in a 1% agarose gel, transferred to a nylon membrane and hybridized with the different ^32p-labeled CDNA fragments. The membrane was stripped and hybridized with indicated probes sequentially. […]
To examine further the relationship between PEG-3 and VEGF, experiments were performed to determined if transient ectopic expression of PEG-3 in rodent and human tumor cells could elevate VEGF expression. E11 cells were transfected with a PEG-3 expression construct, nuclei were isolated and evaluated for elevated VEGF transcription and total cytoplasmic RNA was isolated and steady-state VEGF mRNA levels were determined by Northern blotting (FIG. 8 and data not shown). […]

PEG-3 = PEG-3 mRNA and transcription after DNA damage; type: cell-based, rat; conditions: following DNA damage
Text: The specific role of the gadd34/MyD116 gene in cellular physiology is not known. Like hamster gadd34 and its murine homologue MyD116, PEG-3 steady-state mRNA and RNA transcriptional levels are increased following DNA damage by methyl methanesulfonate (MMS) and gamma irradiation (γIR) (FIGS. 2 and 5 and data not shown). In contrast, nuclear run-on assays indicate that only the PEG-3 gene is transcriptionally active (transcribed) as a function of transformation progression (FIG. 5). This is apparent in CREF cells transformed by Ha-ras and in E11-NMT and various E11-NMT subclones either expressing or not expressing the progression phenotype (FIG. 5). The gadd34/MyD116 gene, as well as the gadd45, MyD118 and gadd153 genes, encode acidic proteins with very similar and unusual charge characteristics (24). PEG-3 also encodes a putative protein with acidic properties similar to the gadd and MyD genes (FIG. 3). The carboxyl-terminal domain of the murine MyD116 protein is homologous to the corresponding domain of the herpes simplex virus 1 γ134.5 protein, that prevents the premature shutoff of total protein synthesis in infected human cells (35,36). Replacement of the carboxyl-terminal domain of γ134.5 with the homologous region from MyD116 results in a restoration of function to the herpes viral genome, i.e., prevention of early host shutoff of protein synthesis (36). […]

SMILES | Effect on PEG-3 induced elevation of VEGF transcription and RNA (VEGF) | PEG-3 steady-state mRNA and RNA transcriptional levels (PEG-3)
C[C@@H]1C[C@@H]([C@H](O)CC2CC(=O)NC(=O)C2)C(=O)[C@@H](C)C1 [cycloheximide] | prevented | 
COS(C)(=O)=O [MMS, methyl methanesulfonate] |  | increased
